The values that follow come from US8383619B2, “Pharmaceutical compounds” (Astex Therapeutics Limited, priority 2008, dated 2013).

Assay in all cases: Anti-proliferative assay (Oncodesign)
What all share (type): cell-based

One experiment concerns SK-MES-1. Particulars: Homo sapiens; SK-MES-1 (LUNG); read-out: IC50 (Concentration of test compound). The method in brief:
(§1)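 Testing covered concentrations up to 10,000 nanomolar, giving IC50 values in nM. Cells treated for 72 h after 16 h recovery were then incubated 6 h with 10% (v/v) Alamar Blue and read at 535 nm ex/[…].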

The subject of a further experiment is KATO III. The note with it: Homo sapiens; KATO III (STOMACH); read-out: IC50 (Concentration of test compound). The method, boiled down: as §1
The subject of a further experiment is NAMALWA. The note with it: NAMALWA (BLOOD); read-out: IC50 (Concentration of test compound). The method, boiled down:
as §1

In a further experiment the test system is LB796-BLC. The note with it: LB796-BLC (URINARY BLADDER); read-out: IC50 (Concentration of test compound). The method in brief:
as §1

A further experiment deals with FTC-238. Particulars: FTC-238 (THYROID); read-out: IC50 (Concentration of test compound). The method in brief: as §1
The test system of a further experiment is LB12-SCLC/OC2. Particulars: LB12-SCLC/OC2 (LUNG); read-out: IC50 (Concentration of test compound). The method, boiled down: as §1
Another experiment deals with Malme-3M. The note with it: Homo sapiens; Malme-3M (SKIN); read-out: IC50 (Concentration of test compound). The method, boiled down: as §1
For the next experiment, the system named is Evsa-T. The note with it: Homo sapiens; Evsa-T (BREAST); read-out: IC50 (Concentration of test compound). The method, boiled down:
as §1

A further experiment has as its system LB996-RCC. The note with it: LB996-RCC (KIDNEY); read-out: IC50 (Concentration of test compound). The method in brief: as §1
The subject of a further experiment is DLD-1. The note with it: Homo sapiens; DLD-1 (COLON); read-out: IC50 (Concentration of test compound). The method, boiled down:
as §1

The test system of the next experiment is NCI-H69. The note with it: Homo sapiens; NCI-H69 (LUNG); read-out: IC50 (Concentration of test compound). The method in brief: as §1
A further experiment deals with NCI-H520. The note with it: Homo sapiens; NCI-H520 (LUNG); read-out: IC50 (Concentration of test compound). The method, boiled down: as §1
In another experiment the test system is T24. Particulars: Homo sapiens, T-24; T24 (URINARY BLADDER); read-out: IC50 (Concentration of test compound). The method in brief:
as §1

The next experiment relates to UZG4-MEL. The note with it: UZG4-MEL (SKIN); read-out: IC50 (Concentration of test compound). The method, boiled down:
as §1

In another experiment the test system is HCC1954. The note with it: Homo sapiens; HCC1954 (BREAST); read-out: IC50 (Concentration of test compound). The method in brief: as §1
The subject of the next experiment is NCI-H460. The note with it: Homo sapiens; NCI-H460 (LUNG); read-out: IC50 (Concentration of test compound). The method, boiled down: as §1
Another experiment concerns HL-60. Particulars: Homo sapiens; HL-60 (BLOOD); read-out: IC50 (Concentration of test compound). The method, boiled down:
as §1

Another experiment has as its system NCI-H596. The note with it: Homo sapiens; NCI-H596 (LUNG); read-out: IC50 (Concentration of test compound). The method in brief:
as §1

The next experiment relates to LB1047-RCC. The note with it: LB1047-RCC (KIDNEY); read-out: IC50 (Concentration of test compound). The method, boiled down: as §1
The next experiment has as its system KB. Particulars: Homo sapiens; KB (HEAD AND NECK); read-out: IC50 (Concentration of test compound). The method in brief:
as §1

In a further experiment the test system is MDA-MB-435. Particulars: Homo sapiens; MDA-MB-435 (BREAST); read-out: IC50 (Concentration of test compound). The method, boiled down:
as §1

For the next experiment, the system named is LB61-NSCLC. The note with it: LB61-NSCLC (LUNG); read-out: IC50 (Concentration of test compound). The method, boiled down: as §1
Another experiment concerns RPMI 8226/Dox40. Particulars: Homo sapiens; RPMI 8226/Dox40 (BLOOD); read-out: IC50 (Concentration of test compound). The method, boiled down: as §1
For the next experiment, the system named is LAMA-84. The note with it: Homo sapiens; LAMA-84 (BLOOD); read-out: IC50 (Concentration of test compound). The method in brief:
as §1

pIC50: −log10 of the molar value. A value given as a limit tells only on which side of the number the result lay.

On to `CC(C)c1cc(C(=O)N2Cc3ccc(CN4CCN(C)CC4)cc3C2)c(O)cc1O` [(2,4-dihydroxy-5-isopropyl-phenyl)-[5-(4-methyl-piperazin-1-ylmethyl)-1,3-dihydro-isoindol-2-yl]-methanone], for which the pIC50 with SK-MES-1 is 6.57; with KATO III, 6.79; in the experiment with NAMALWA, 7.03; in the experiment on LB796-BLC it was 7.08; with FTC-238, 7.59; in the experiment on LB12-SCLC/OC2 it was 7.28. Moreover, the pIC50 in the experiment with Malme-3M is 6.80; in the experiment with Evsa-T, 6.77; in the experiment on LB996-RCC it was 6.80; with DLD-1, 7.25; in the experiment with NCI-H69, 6.79; in the experiment with NCI-H520, 7.01. Moreover, the pIC50 with T24 is 6.07; in the experiment with UZG4-MEL it was 6.74; with HCC1954, 7.55; in the experiment on NCI-H460 it was 6.93; with HL-60, 6.41; in the experiment on NCI-H596, 7.08. The pIC50 with LB1047-RCC is 7.24; with KB, 7.32; with MDA-MB-435 it was 6.91; with LB61-NSCLC, under 5.00; with RPMI 8226/Dox40, 6.67; in the experiment on LAMA-84 it was 5.96.
